Experimental data from the supplement of paper PMC10307832.

How the values were obtained:
Test in all cases: relative viability (nuclei count vs DMSO), 5 days (fraction); higher = more cells survive
[1] = compound: CC1(C)CCC(CN2CCN(c3ccc(C(=O)NS(=O)(=O)c4ccc(NCC5CCOCC5)c([N+](=O)[O-])c4)c(Oc4cnc5[nH]ccc5c4)c3)CC2)=C(c2ccc(Cl)cc2)C1 [Venetoclax] + NC(=O)Nc1cc(-c2cccc(F)c2)sc1C(=O)N[C@H]1CCCNC1 [AZD7762] (partner 0.2 µM)
Method in brief: (§1)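 Medians of duplicate plates are given as relative viability. That measure is the nuclei count in treated wells divided by the count in vehicle wells. Counts were taken on 4× images of lung cancer cell lines in 1536-well plates, 5 days after pin-tool dosing the day after seeding with one drug alone or a fixed anchor-drug dose plus five library-drug doses (not always all listed) in √10 steps.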

[2] = compound: CC1(C)CCC(CN2CCN(c3ccc(C(=O)NS(=O)(=O)c4ccc(NCC5CCOCC5)c([N+](=O)[O-])c4)c(Oc4cnc5[nH]ccc5c4)c3)CC2)=C(c2ccc(Cl)cc2)C1 [Venetoclax] + CCNC(=O)c1noc(-c2cc(C(C)C)c(O)cc2O)c1-c1ccc(CN2CCOCC2)cc1 [Luminespib] (partner 0.01 µM)
Method in brief: as §1

[3] = compound: Cn1cnc2c(F)c(Nc3ccc(Br)cc3Cl)c(C(=O)NOCCO)cc21 [Selumetinib] + CC(=O)c1c(C)c2cnc(Nc3ccc(N4CCNCC4)cn3)nc2n(C2CCCC2)c1=O [Palbociclib] (partner 0.5 µM)
Method in brief: as §1

[4] = compound: CC1(C)CCC(CN2CCN(c3ccc(C(=O)NS(=O)(=O)c4ccc(NCC5CCOCC5)c([N+](=O)[O-])c4)c(Oc4cnc5[nH]ccc5c4)c3)CC2)=C(c2ccc(Cl)cc2)C1 [Venetoclax] + CC(=O)c1c(C)c2cnc(Nc3ccc(N4CCNCC4)cn3)nc2n(C2CCCC2)c1=O [Palbociclib] (partner 0.5 µM)
Method in brief: as §1

| Cell Line | relative viability ([1]; first compound 0.01 µM) | relative viability ([1]; first compound 0.03162 µM) | relative viability ([1]; first compound 0.1 µM) | relative viability ([1]; first compound 0.3162 µM) | relative viability ([1]; first compound 1 µM) | relative viability ([2]; first compound 0.01 µM) | relative viability ([2]; first compound 0.03162 µM) | relative viability ([2]; first compound 0.1 µM) | relative viability ([2]; first compound 0.3162 µM) | relative viability ([2]; first compound 1 µM) | relative viability ([3]; first compound 0.02 µM) | relative viability ([3]; first compound 0.06325 µM) | relative viability ([3]; first compound 0.2 µM) | relative viability ([3]; first compound 0.6325 µM) | relative viability ([4]; first compound 0.01 µM) | relative viability ([4]; first compound 0.03162 µM) | relative viability ([4]; first compound 0.1 µM) | relative viability ([4]; first compound 0.3162 µM) | relative viability ([4]; first compound 1 µM) |
| --- | --- | --- | --- | --- | --- | --- | --- | --- | --- | --- | --- | --- | --- | --- | --- | --- | --- | --- | --- |
| LOU-NH91 | 0.766 | 0.8 | 0.723 | 0.777 | 0.63 | 0.271 | 0.374 | 0.345 | 0.336 | 0.326 | 0.583 | 0.611 | 0.546 | 0.535 | 0.504 | 0.546 | 0.505 | 0.516 | 0.519 |
| BEN | 0.771 | 0.746 | 0.611 | 0.836 | 0.637 | 0.343 | 0.48 | 0.401 | 0.192 | 0.513 | 0.466 | 0.53 | 0.462 | 0.509 | 0.519 | 0.469 | 0.49 | 0.489 | 0.498 |
| NCI-H1734 | 0.529 | 0.671 | 0.474 | 0.665 | 0.571 | 0.184 | 0.188 | 0.244 | 0.204 | 0.224 | 0.304 | 0.332 | 0.36 | 0.313 | 0.331 | 0.383 | 0.346 | 0.394 | 0.318 |
| LCLC-103H | 0.837 | 0.737 | 0.809 | 0.817 | 0.734 | 0.969 | 0.999 | 0.905 | 1.02 | 0.902 | 0.467 | 0.498 | 0.469 | 0.439 | 0.518 | 0.479 | 0.491 | 0.437 | 0.428 |
| ChaGo-K-1 | 0.884 | 0.854 | 0.849 | 0.888 | 0.85 | 0.459 | 0.709 | 0.637 | 0.628 | 0.59 | 0.94 | 0.966 | 0.895 | 0.848 | 0.992 | 0.986 | 0.867 | 0.905 | 0.899 |
| NCI-H2405 | 0.628 | 0.722 | 0.744 | 0.748 | 0.657 | 0.747 | 0.754 | 0.85 | 0.712 | 0.639 | 0.485 | 0.434 | 0.395 | 0.344 | 0.52 | 0.533 | 0.531 | 0.529 | 0.513 |
| HCC-44 | 1.01 | 0.99 | 1.04 | 0.929 | 0.924 | 1.05 | 0.946 | 1.13 | 1.07 | 1 | 1 | 0.971 | 1.01 | 1.09 | 0.928 | 0.954 | 0.934 | 0.899 | 0.919 |
| EMC-BAC-2 | 1.11 | 1.15 | 1.07 | 1.08 | 1.03 | 1.09 | 1.16 | 1.23 | 1.21 | 1.1 | 0.554 | 0.53 | 0.55 | 0.52 | 0.5 | 0.555 | 0.533 | 0.541 | 0.486 |
